In BindingDB's records for doi:10.1039/c2dt30198a (Shanxi University, 2012):
pIC50: −log10 of the molar value.

What was measured:
[1] = molecular target: T1, Tyrosine-protein phosphatase non-receptor type 1 (Homo sapiens, UniProt P18031); test: PTP inhibition assay; details: pH 7.2
T1 sequence (P18031 whole entry): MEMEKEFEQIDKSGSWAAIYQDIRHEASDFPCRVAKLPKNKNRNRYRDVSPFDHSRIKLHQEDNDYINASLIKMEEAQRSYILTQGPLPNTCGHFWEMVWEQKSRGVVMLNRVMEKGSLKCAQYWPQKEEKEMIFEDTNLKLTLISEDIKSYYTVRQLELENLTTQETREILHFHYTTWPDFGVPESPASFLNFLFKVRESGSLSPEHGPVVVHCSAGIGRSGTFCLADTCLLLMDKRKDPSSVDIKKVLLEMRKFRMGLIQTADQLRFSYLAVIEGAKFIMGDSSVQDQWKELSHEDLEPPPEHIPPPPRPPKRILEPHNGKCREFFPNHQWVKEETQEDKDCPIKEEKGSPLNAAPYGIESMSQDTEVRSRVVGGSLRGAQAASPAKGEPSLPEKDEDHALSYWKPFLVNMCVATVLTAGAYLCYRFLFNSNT
Description: (§1) The assays were performed in 20 mM MOPS buffer, pH 7.2, containing 50 mM NaCl and 2 mM GSH. Compounds were dissolved in DMSO and diluted to various concentration gradients and further diluted for activity evaluations. Ten microliter of complex was mixed to 82 L enzyme solution for 30 min, followed by addition of 2 L of pNPP (0.1 M) substrate to initiate the reaction. After 30 min at RT, 6 L of 2 M NaOH was added to terminate the reaction. The absorbance was measured at 405 nm.

[2] = molecular target: T2, Tyrosine-protein phosphatase non-receptor type 2 (Homo sapiens, UniProt P17706); test: PTP inhibition assay; details: pH 7.2
T2 sequence (P17706 whole entry): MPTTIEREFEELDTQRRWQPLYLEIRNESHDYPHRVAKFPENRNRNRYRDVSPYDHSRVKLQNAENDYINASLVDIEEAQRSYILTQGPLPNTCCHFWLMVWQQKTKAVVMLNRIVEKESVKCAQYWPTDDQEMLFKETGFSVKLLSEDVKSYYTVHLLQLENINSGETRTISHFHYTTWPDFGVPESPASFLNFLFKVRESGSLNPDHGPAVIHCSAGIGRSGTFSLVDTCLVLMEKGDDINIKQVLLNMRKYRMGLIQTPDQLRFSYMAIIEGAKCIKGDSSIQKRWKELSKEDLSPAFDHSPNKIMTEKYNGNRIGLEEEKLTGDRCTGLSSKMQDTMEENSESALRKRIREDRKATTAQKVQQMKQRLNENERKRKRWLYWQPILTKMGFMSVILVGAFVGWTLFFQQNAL
Description: as §1

[3] = molecular target: T3, Tyrosine-protein phosphatase non-receptor type 11 (Homo sapiens, UniProt Q06124); test: PTP inhibition assay; details: pH 7.2
T3 sequence (Q06124 whole entry): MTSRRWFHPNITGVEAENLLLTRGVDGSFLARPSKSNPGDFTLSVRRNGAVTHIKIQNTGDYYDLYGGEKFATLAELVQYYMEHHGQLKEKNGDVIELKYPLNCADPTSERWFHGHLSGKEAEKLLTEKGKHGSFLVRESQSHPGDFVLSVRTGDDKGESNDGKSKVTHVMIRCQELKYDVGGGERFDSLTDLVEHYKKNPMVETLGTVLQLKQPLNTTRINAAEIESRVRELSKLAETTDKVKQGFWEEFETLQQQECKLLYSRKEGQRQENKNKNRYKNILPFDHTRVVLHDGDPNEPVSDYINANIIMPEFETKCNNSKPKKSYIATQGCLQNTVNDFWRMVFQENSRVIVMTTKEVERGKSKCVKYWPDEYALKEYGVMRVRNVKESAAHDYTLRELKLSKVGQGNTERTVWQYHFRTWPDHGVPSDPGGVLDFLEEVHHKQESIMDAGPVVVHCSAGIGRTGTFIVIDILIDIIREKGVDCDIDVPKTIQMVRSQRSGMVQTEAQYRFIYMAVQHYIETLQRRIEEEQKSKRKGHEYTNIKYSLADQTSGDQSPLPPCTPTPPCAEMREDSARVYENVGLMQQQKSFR
Description: as §1

[4] = molecular target: Tyrosine-protein phosphatase non-receptor type 6 (Homo sapiens, UniProt P29350); test: PTP inhibition assay; details: pH 7.2
Tyrosine-protein phosphatase non-receptor type 6, sequence (P29350 whole entry): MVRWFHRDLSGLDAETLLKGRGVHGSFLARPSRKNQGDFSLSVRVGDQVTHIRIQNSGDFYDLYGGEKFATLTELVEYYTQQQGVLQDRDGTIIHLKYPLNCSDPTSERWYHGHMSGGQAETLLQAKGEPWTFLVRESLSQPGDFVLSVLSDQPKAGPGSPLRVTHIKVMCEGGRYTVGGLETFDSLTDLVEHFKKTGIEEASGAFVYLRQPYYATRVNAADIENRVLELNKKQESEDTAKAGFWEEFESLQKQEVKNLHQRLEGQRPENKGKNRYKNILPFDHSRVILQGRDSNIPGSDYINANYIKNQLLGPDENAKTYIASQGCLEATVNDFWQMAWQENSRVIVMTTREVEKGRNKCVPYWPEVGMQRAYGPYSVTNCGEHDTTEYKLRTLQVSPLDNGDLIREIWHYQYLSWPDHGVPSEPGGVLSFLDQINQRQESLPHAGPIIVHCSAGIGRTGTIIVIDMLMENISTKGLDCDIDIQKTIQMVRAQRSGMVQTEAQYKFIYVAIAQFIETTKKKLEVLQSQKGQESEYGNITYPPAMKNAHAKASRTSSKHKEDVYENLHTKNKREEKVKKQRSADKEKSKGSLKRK
Description: as §1

[5] = molecular target: Tyrosine-protein phosphatase non-receptor type 9 (PTP-MEG2, Homo sapiens) (UniProt P43378); test: The assays were performed in 20 mM MOPS buffer, pH 7.2, containing 50 mM NaCl and 2 mM GSH. Compounds were dissolved in DMSO and diluted to various concentration gradients and further diluted for activity evaluations. Ten microliter of complex was mixed to 82 L enzyme solution for 30 min, followed by addition of 2 L of pNPP (0.1 M) substrate to initiat
Tyrosine-protein phosphatase non-receptor type 9 (PTP-MEG2, Homo sapiens), sequence (P43378 whole entry, looked up): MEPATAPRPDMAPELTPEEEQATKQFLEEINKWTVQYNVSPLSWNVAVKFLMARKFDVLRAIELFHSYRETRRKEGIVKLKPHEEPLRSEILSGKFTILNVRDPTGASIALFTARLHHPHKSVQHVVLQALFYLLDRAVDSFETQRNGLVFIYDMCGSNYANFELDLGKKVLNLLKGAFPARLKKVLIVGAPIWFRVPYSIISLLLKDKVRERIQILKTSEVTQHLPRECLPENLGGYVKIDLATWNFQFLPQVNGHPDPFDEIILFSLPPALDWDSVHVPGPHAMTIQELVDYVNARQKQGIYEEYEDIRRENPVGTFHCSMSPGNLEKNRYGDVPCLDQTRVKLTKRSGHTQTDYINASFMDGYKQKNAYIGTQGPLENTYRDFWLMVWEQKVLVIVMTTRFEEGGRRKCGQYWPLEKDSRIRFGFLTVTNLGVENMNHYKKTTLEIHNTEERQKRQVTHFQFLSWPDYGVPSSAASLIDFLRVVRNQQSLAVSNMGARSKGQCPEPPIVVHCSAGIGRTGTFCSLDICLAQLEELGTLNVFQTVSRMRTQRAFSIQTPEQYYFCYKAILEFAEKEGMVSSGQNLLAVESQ

| pIC50 [1] | pIC50 [2] | pIC50 [3] | pIC50 [4] | pIC50 [5] | Substance |
| --- | --- | --- | --- | --- | --- |
| 6.16 | 5.72 | 4.46 | 5.19 | 5.54 | Bis(4-bromo-2-((phenylimino)methyl)phenolate)-oxovanadium(IV) (4) |
| 6.03 | 5.85 | 5.59 | 5.60 | 5.49 | Bis(4-nitro-2-((phenylimino)methyl)phenolate)-oxovanadium(IV) (5) |
| 6.10 | 5.08 | 5.64 | 6.00 | 5.44 | Bis(4-chloro-2-((phenylimino)methyl)phenolate)-oxovanadium(IV) (3) |
